Read-outs that look alike come from different tables or passages of the source.
Columns and labels:
[1] = system: P. falciparum female gametocytes; experiment: P. falciparum Dual Gamete Formation Assay (PfDGFA), female readout (Pfs25-positive female gametes); assay type: cell-based, Plasmodium falciparum NF54; conditions: for Average inhibition female (%) / % inhibition female (individual replicates) R1 / % inhibition female (individual replicates) R3 / % inhibition female (individual replicates) R4 / inhibition at 2 µM: 24h preincubation with gametocytes; for Selectivity ratio F: HepG2 Tox50 versus female IC50; for IC50: PfDGFA, 24 h incubation with gametocytes before induction, female gamete readout, read-out: Female IC50; for HitlevelF: number of replicates with >50% inhibition in the female readout
Method in brief: (§1)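 Day-14 NF54 gametocytes were incubated with compound for 24 h at 37°C under 1% O2/3% CO2/96% N2. Gametogenesis was triggered with ookinete medium (0.1 μM xanthurenic acid) plus Cy3-anti-Pfs25, and exflagellation was imaged by brightfield after cooling to 4°C then 28°C. Females were imaged by Pfs25 fluorescence 24 h later at 28°C.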

[2] = system: P. falciparum male gametocytes; experiment: P. falciparum Dual Gamete Formation Assay (PfDGFA), male readout (exflagellation); assay type: cell-based, Plasmodium falciparum NF54; conditions: for Average inhibition male (%) / % inhibition male (individual replicates) R1 / % inhibition male (individual replicates) R3 / % inhibition male (individual replicates) R4 / inhibition at 2 µM: 24h preincubation with gametocytes; for Selectivity Ratio M: HepG2 Tox50 versus male IC50; for IC50: PfDGFA, 24 h incubation with gametocytes before induction, exflagellation readout, read-out: Male IC50; for HitlevelM: number of replicates with >50% inhibition in the male readout
Method in brief: as §1

HepG2 cells = experiment: HepG2 cytotoxicity counter-screen; conditions: cytotoxic activity against HepG2 cells
[3] = Plasmodium falciparum, 2µM, average of replicates, read-out: Average inhibition female (%)
[4] = Plasmodium falciparum, 2µM, replicate R1, read-out: % inhibition female (individual replicates) R1
[5] = Plasmodium falciparum, 2µM, replicate R2, read-out: % inhibition female (individual replicates) R2
[6] = Plasmodium falciparum, 2µM, replicate R3, read-out: % inhibition female (individual replicates) R3
[7] = Plasmodium falciparum, 2µM, replicate R4, read-out: % inhibition female (individual replicates) R4
[8] = Plasmodium falciparum, 2µM, average of replicates, read-out: Average inhibition male (%)
[9] = Plasmodium falciparum, 2µM, replicate R1, read-out: % inhibition male (individual replicates) R1
[10] = Plasmodium falciparum, 2µM, replicate R2, read-out: % inhibition male (individual replicates) R2
[11] = Plasmodium falciparum, 2µM, replicate R4, read-out: % inhibition male (individual replicates) R4
[12] = PfDGFA at 2µM, average of replicates

Compound | IC50 ([1]; Plasmodium falciparum) | IC50 ([2]; Plasmodium falciparum) | Selectivity ratio F [1] | IC50 [1] | Selectivity Ratio M [2] | IC50 [2] | Tox50 (HepG2 cells) | inhibition at 2 µM [1, 3] | inhibition at 2 µM [1, 4] | inhibition at 2 µM [1, 5] | inhibition at 2 µM [1, 6] | inhibition at 2 µM [1, 7] | inhibition at 2 µM [2, 8] | inhibition at 2 µM [2, 9] | inhibition at 2 µM [2, 10] | inhibition at 2 µM [2, 11] | HitlevelF ([1]; 2µM) | HitlevelM ([2]; 2µM) | further results
CN(C)CCCOc1ccc(CN2CCC(c3c[nH]c4ccc(NCC5CCCCC5)cc34)CC2)cc1.O=C(O)C(F)(F)F [TCMDC-140737] |  |  | 1.66 | 4940 nM | 6.13 | 1340 nM | 8.22 µM |  |  |  |  |  |  |  |  |  |  |  | Average inhibition female (%) ([1]; 2µM, average of replicates): 62.2%; % inhibition female (individual replicates) R1 ([1]; 2µM, replicate R1): 56.9%; % inhibition female (individual replicates) R3 ([1]; 2µM, replicate R3): 56.2%; % inhibition female (individual replicates) R4 ([1]; 2µM, replicate R4): 81.1%; Average inhibition male (%) ([2]; 2µM, average of replicates): 93.4%; % inhibition male (individual replicates) R1 ([2]; 2µM, replicate R1): 100.1%; % inhibition male (individual replicates) R3 ([2]; 2µM, replicate R3): 96.2%; % inhibition male (individual replicates) R4 ([2]; 2µM, replicate R4): 94.6%
CCN(CC)CCN(Cc1ccc(-c2ccc(C(F)(F)F)cc2)cc1)C(=O)Cn1cc(Cc2cnn(C)c2)c(=O)nc1/C=C/c1ccc(F)cc1.O=C(O)C(O)C(O)C(=O)O [TCMDC-140741] | 7160 nM | 850 nM | 2.29 |  | 19.3 |  | 16.37 µM | 44.8% | 41.2% | 41.2% | 34.9% | 61.9% | 90.1% | 92.2% | 91.9% | 100% |  |  | inhibition at 2 µM ([2]; Plasmodium falciparum, 2µM, replicate R3, read-out: % inhibition male (individual replicates) R3): 76%
CC(C)(C)c1ccc(CNC(=O)c2ccc(CNC3CCC(N)CC3)s2)cc1 (centres unmarked) [TCMDC-140777] |  |  | 1.74 | 5360 nM | 7.72 | 1210 nM | 9.32 µM |  |  |  |  |  |  |  |  |  | 1 | 4 | Average inhibition female (%) [1, 12]: 32.6%; % inhibition female (individual replicates) R1 ([1]; PfDGFA at 2µM, replicate R1): 23.5%; % inhibition female (individual replicates) R3 ([1]; PfDGFA at 2µM, replicate R3): 26.9%; % inhibition female (individual replicates) R4 ([1]; PfDGFA at 2µM, replicate R4): 56.3%; Average inhibition male (%) [2, 12]: 76.0%; % inhibition male (individual replicates) R1 ([2]; PfDGFA at 2µM, replicate R1): 74.4%; % inhibition male (individual replicates) R3 ([2]; PfDGFA at 2µM, replicate R3): 56.4%; % inhibition male (individual replicates) R4 ([2]; PfDGFA at 2µM, replicate R4): 93.6%

Now from value to molecule, other results behind:

IC50 ([1]; Plasmodium falciparum) | IC50 ([2]; Plasmodium falciparum) | Compound | Selectivity ratio F [1] | IC50 [1] | Selectivity Ratio M [2] | IC50 [2] | Tox50 (HepG2 cells) | inhibition at 2 µM [1, 3] | inhibition at 2 µM [1, 4] | inhibition at 2 µM [1, 5] | inhibition at 2 µM [1, 6] | inhibition at 2 µM [1, 7] | inhibition at 2 µM [2, 8] | inhibition at 2 µM [2, 9] | inhibition at 2 µM [2, 10] | inhibition at 2 µM [2, 11] | HitlevelF ([1]; 2µM) | HitlevelM ([2]; 2µM) | further results
> 10000 nM | 1930 nM | CCN(CC)CCOc1ccc(Nc2ncc3cc(-c4c(Cl)cccc4Cl)c(=O)n(C)c3n2)cc1 [TCMDC-140940] | 0.27 |  | 1.38 |  | 2.66 µM |  |  |  |  |  |  |  |  |  | 0 | 4 | inhibition at 2 µM ([1]; Plasmodium falciparum, PfDGFA at 2µM, average of replicates, read-out: Average inhibition female (%)): -0.6%; inhibition at 2 µM ([1]; Plasmodium falciparum, PfDGFA at 2µM, replicate R1, read-out: % inhibition female (individual replicates) R1): -7.5%; inhibition at 2 µM ([1]; Plasmodium falciparum, PfDGFA at 2µM, replicate R2, read-out: % inhibition female (individual replicates) R2): 1.2%; inhibition at 2 µM ([1]; Plasmodium falciparum, PfDGFA at 2µM, replicate R3, read-out: % inhibition female (individual replicates) R3): -12%; inhibition at 2 µM ([1]; Plasmodium falciparum, PfDGFA at 2µM, replicate R4, read-out: % inhibition female (individual replicates) R4): 15.8%; inhibition at 2 µM ([2]; Plasmodium falciparum, PfDGFA at 2µM, average of replicates, read-out: Average inhibition male (%)): 72.1%; inhibition at 2 µM ([2]; Plasmodium falciparum, PfDGFA at 2µM, replicate R1, read-out: % inhibition male (individual replicates) R1): 72.9%; inhibition at 2 µM ([2]; Plasmodium falciparum, PfDGFA at 2µM, replicate R2, read-out: % inhibition male (individual replicates) R2): 64.9%; inhibition at 2 µM ([2]; Plasmodium falciparum, PfDGFA at 2µM, replicate R3, read-out: % inhibition male (individual replicates) R3): 74%; inhibition at 2 µM ([2]; Plasmodium falciparum, PfDGFA at 2µM, replicate R4, read-out: % inhibition male (individual replicates) R4): 76.8%
4100 nM | 630 nM | CCN(CC)CCN(Cc1ccc(-c2ccc(C(F)(F)F)cc2)cc1)C(=O)Cn1cc(Cc2cnn(C)c2)c(=O)nc1/C=C/c1cccc(F)c1F.O=C(O)C(O)C(O)C(=O)O [TCMDC-140964] | 3.16 |  | 20.63 |  | 12.97 µM | 36.2% | 34% | 38.6% | 28.7% | 43.5% | 99.3% | 98.8% | 97.8% | 101% |  |  | 

From paper PMC10584170, “Machine learning-based phenotypic imaging to characterise the targetable biology of Plasmodium falciparum male gametocytes for the development of transmission-blocking antimalarials” (PLOS Pathogens, 2023)
